In one series the test system is MCF-7 tumors. The series can be described thus: MCF-7 orthotopic tumor model. In kind it is in vivo, mouse. The procedure: FIG. 39. SERK-F6 eradicates wild-type ERα tumors via hyperactivation of aUPR. a, MCF-7 orthotopic tumors were established in Nu/J ovariectomized mice supplemented with a 60 day E2 pellet (0.36 mg) and grown to ˜400 mm^3 (28 days to establish), randomized, then treated with vehicle daily (n=3), vehicle weekly (n=3), fulv. weekly (5 mg/mouse, s.c., n=6), SERK-F6 daily (10 or 40 mg/kg p.o.). Vehicle arms were averaged. p values: *: p<0.05, **: p<0.01, ***: p<0.001, ****: p<0.0001. Tumor images were taken at the end of the study (day 21) and are representative of all tumors (n=6). b-e, MCF-7 cells were orthotopically bi-laterally grafted and tumors were grown until total tumor burden was ˜ 400 mm^3 prior to daily treatment with vehicle or SERK-F6 (40 mg/kg p.o.). Mice (n=5 per arm) were sacrificed after 3 days (b,c) and 7 days (d,e) and tumors harvested. […] Vinculin (Vin) was used as a loading control. […] Error bars represent S.E.M.
(§1) FIG. 40. SERK-F6 is tolerated, reaches biologically relevant concentrations, and crosses the blood-brain barrier in vivo. a, Serum concentrations of SERK-F6 after indicated doses, route of administration, and time. Concentration was determined via LC/MS/MS analysis. […] AUC: Area Under the Curve, Cmax: maximum concentration, t1/2: half-life. c,d, Mice (CD-1) were treated with the indicated doses and times, then sacrificed and their serum and brains collected. Concentrations were determined via LC/MS/MS analysis. […] Treatment arms: vehicle daily (n=3), vehicle weekly (n=3), fulv. weekly (5 mg/mouse, s.c., n=6), SERK-F6 daily (10 or 40 mg/kg p.o.). Vehicle arms were combined. g, Mass of tumors harvested from mice. h, observed murine weight during this MCF-7 study (n=6). i,j, Tumor measurements for MCF-7 bilateral orthotopic model (n=4-5).
To probe the efficacy of SERK-F6 for killing ERα positive tumors, large MCF-7 tumors were grown and then intervened with therapy. […] The mice were then sacrificed prior to complete tumor eradication.

For series [1], the system named is D538G mutant tumors (TDG cell line). The series can be described thus: TDG-luc orthotopic tumor model. In kind it is in vivo, mouse. The text has this:
(§2) FIG. 41. SERK-F6 eradicates mutant ERα primary and metastatic breast cancer. a-c, TYS-luc. orthotopic tumors were established in NSG ovariectomized mice (no E2 pellet, 60 days to establish) and dosed daily as indicated (n=5-6). b, representative examples of bioluminescence images of SERK-F6 treated mice (7 days). d,e, TDG-luc. orthotopic tumors were established in NSG ovariectomized mice (no E2 pellet, 120 days to establish) and dosed daily as indicated (n=4-5). e, Bioluminescence image of SERK-F6 treated mouse with TDG-luc. tumor burden after 7 days. f, MYS-luc. orthotopic tumors were established in NSG ovariectomized mice (no E2 pellet, 45 days to establish) and dosed daily as indicated (n=4-5). g, MDG-luc. orthotopic tumors were established in NSG ovariectomized mice (no E2 pellet, 45 days to establish) and dosed daily as indicated (n=4-5). h, Metastatic model with MDG-luc. cells injected into the tail-vein of NSG ovariectomized mice (no E2 pellet, 1.5 months to establish) and mice were dosed daily as indicated (n=4-5).
FIG. 4A illustrates how IC50's for cell death were determined. 4B tests the ability BHPI, (−)-105, and 01-15 to kill. […] Large orthotopic breast tumors of TYD-Luc cells (T47DERαD538G-luciferase human breast cancer cells) were allowed to form for 4 months in immune suppressed NSG mice. […]

The subject of series [2] is MCF-7 ERα Y537S-luciferase cells. The series can be described thus: Long-term cell culture experiment, MCF-7Y537S cells. In kind it is cell-based, human. Particulars: conditions as FIG. 15.
In series [3] the test system is ATP levels in TYS-Luc cells. The series can be described thus: Intracellular ATP levels. In kind it is cell-based, human. Particulars: 1,000 nM. On the procedure:
TYS-Luc cells were maintained DMSO vehicle (Veh), 1,000 nM BHPI, 1,000 nM (−)-105 with and without 10,000 nM thapsigargin (THG) for the indicated times. ATP levels were determines using a kit and relative ATP levels were from a standard curve. […] (n=3±SEM).

The test system of series [4] is sp-XBP1 mRNA in T47D-luciferase cells. The series can be described thus: Induction of spliced XBP-1 mRNA (qRT-PCR). Format: cell-based, human. Particulars: 100 nM. The procedure:
ERα positive T47D-luciferase, human breast cancer cells, were maintained for the indicated times in vehicle (Ctl, Control), 100 nM BHPI or 100 nM (−)-105. At the indicated times RNA was isolated and levels of sp-XBP1 mRNA quantitated by qRT-PCR. (n=3±SEM). […] Increased sp-XBP1 mRNA is a widely used marker for unfolded protein response (UPR) activation.
(In qPCR the cycle at which signal appears reflects the starting amount.)

In a further series the test system is TYS-Luc cells. The series can be described thus: Long-term cell culture experiment, TYS-Luc cells (MTS). Format: cell-based, human. The settings on record: 2 weeks 1 μM, then 4 weeks without drug. The procedure: To simulate the effect of several weeks of treatment of a tumor in a mouse xenograft, long-term cell culture experiments were performed. TYS-Luc cells (T47DERαY537S-Luc cells; ERαY537S is the most lethal ERα mutation seen in metastatic breast cancer) were plated at 4,000 cells/well in 96 well plates. […] After 2 weeks (medium change every 2 days) cell number was determined using MTS and a standard curve of absorbance versus cell number for TYS-Luc cells. Notes: (i) Bars denote the BHPI and (−)-105 arms of the experiment. No drug is present during regrow. […] This allows any surviving cells to regrow. After 4 weeks the cells were assayed using MTS. […] (Note: Visual inspection of the wells confirmed that there were no cells in the well treated for 2 weeks with active (−)-105.) To test whether the cells that regrew after BHPI treatment were resistant to BHPI they were re-treated for another cycle (BHPI Retreat) and shown to retain sensitivity to BHPI killing. (n=8 biological replicates±SEM.

The nature of series [5]: Pharmacokinetics, brain penetration and tolerability in mice. In kind it is in vivo, mouse. On the procedure: as §1
The pharmacokinetics of SERK-F6 was measured in mice (FIG. 40A-B).

Series [6] deals with Y537S tumors (TYS cell line). As to the kind of experiment: TYS-luc orthotopic tumor model, SERK-F6 i.p. and oral. In kind it is in vivo, mouse.
Description: as §2
SERK-F6 treatment was again tolerated (FIG. 42E) at higher doses and enough to eradicate tumors (FIG. 42F).

Molecules are shown by their SMILES.

`O=C1Nc2c(C(F)(F)F)cccc2C1(c1ccc(O)cc1)c1ccc(OC(F)(F)F)cc1` (single isomer, unassigned; (-)) [(−)-105, 3-(4-hydroxyphenyl)-3-(4-(trifluoromethoxy)phenyl)-7-(trifluoromethyl)indolin-2-one]: the “in-vivo UPR markers in tumors” value in the series with MCF-7 tumors (40 mg/kg p.o., tumors harvested before eradication) was “increases in P-PERK and P-eiF2alpha levels”. Further, in the series with MCF-7 tumors (mouse, in vivo), the “effect on large established MCF-7 tumors” value was “dramatic tumor regressions”. Also, in series [1] (40 mg/kg oral gavage, 3 days), the “efficacy when administered orally” value is given as “effective when administered orally”. Also, the “effect on D538G mutant tumors” value in series [1] (mouse, in vivo) is given as “destruction of D538G mutant tumors”. The “effect on MCF-7Y537S cells in long-term experiments” value in series [2] is on record as “eradicates”. For the same molecule, the “intracellular ATP levels” value in series [3] is recorded as “reduces intracellular ATP levels”. The “UPR activation, induction of sp-XBP1 mRNA” value in series [4] was “much stronger UPR hyper-activator and inducer of sp-XBP1 than BHPI”. For the same molecule, the “regrowth of cells after treatment” value with TYS-Luc cells is “no regrowth”. In addition, in series [5], the blood-brain barrier penetration entry is “blood-brain barrier penetrant” and the tolerability in vivo entry was “well-tolerated”. For the same molecule, the “tumor regrowth at sub-therapeutic dose” value in series [6] (10 mg/kg oral) is on record as “tumors did regrow”. The “tumor regrowth upon treatment cessation” value in series [6] (after treatment cessation) is “tumors did not regrow”. The “effect on Y537S tumors” value in series [6] (dose-dependent, i.p. and oral administration) is recorded as “eradicates Y537S tumors”.

Source of the values: patent publication US12180159B2, “Activators of the unfolded protein response” (The Board of Trustees of the University of Illinois, priority 2018, dated 2024).
